Test results reported in US20240034717A1, “NOVEL POTASSIUM CHANNEL INHIBITORS” (Saniona A/S, priority 2020, published 2024).
Where “and” joins values, the source holds several entries; their conditions need not be identical. Equal entries are not always repeated.

Columns and labels:
[1] = physchem; settings: for solubility at 16 h: 25 °C, pH 7.4, aqueous buffer, kinetic from dmso stock; for Measured Solubility in pH 7.4 phosphate buffer (mg/ml) / Measured Solubility in pH 7.4 phosphate buffer (μM): 50 mM potassium phosphate buffer pH 7.40, 16 hr at ~25° C., incubation concentration 1600 μM
Protocol: 2.79 g of K2HPO4 and 0.54 g of KH2PO4 was dissolved in 390 mL of milliQ water. pH was adjusted to 7.4 using 1N HCl/1N NaOH and final volume was made up to 400 mL with milliQ water.
In case of compounds not soluble/less quantity submission, 40/20/10Mm stocks were prepared and used for experiment.
Assay Procedure: • 245 μL of 50 mM phosphate buffer then 5 μL each of test compound/standards (80 mM) in their respective positions was added to the 1.1 mL 96 well plate. • DMSO Controls was prepared by taking 245 μL of 100% DMSO then 5 μL each of test compound in their respective positions and added to the 1.1 mL 96 well plate • Plate was incubated with mixing at 1600 RPM for 16 hours at room temperature (˜23 MC). • After incubation, samples were filtered using Millipore plates. • Filtrates were analysed by HPLC-UV.
Solubility is calculated using the following formula: […]

[2] = target: erythrocyte KCa3.1 channels (Homo sapiens (Human), UniProt O15554); assay: Erythrocyte KCa3.1 assay; type: cell-based; settings: human erythrocytes, A23187-activated KCa3.1; read-out: RBC K (in vitro) Human IC50 (μM) Potency category
Protocol: Human blood was drawn from healthy human volunteers in a standard heparinized blood sampling vial (Vacutainer, Li/heparin, ED Bioscience, Plymouth, UK). The erythrocytes were packed by centrifugation, and the plasma and buffy coat were removed by aspiration. Erythrocytes were washed three times in the experimental salt solution and then stored at 0° C. until use. Blood samples from NMRI mice or from Wistar rats were treated similarly. The methodological principle is outlined in Macey et al. (1978) and further described in Strøbaek et al. (2013). Activation of the erythrocyte KCa3.1 channels were obtained by addition of the Ca^2+ ionophore A23187, which causes synchronized hyperpolarization, which is reported as a CCCP-mediated shift in the unbuffered extracellular pH of the erythrocyte suspension. Standard procedure: 3 mL unbuffered experimental salt solution (in mM: 2 KCl, 154 NaCl, 0.05 CaCl2) was heated to 37° C. with stirring. Packed erythrocytes were added (50 μL, final cytocrit 1.5%), and the extracellular pH (pHo) followed with a glass/calomel (pHG200-8/REF200, Radiometer, Denmark) electrode pair. CCCP (3 μL, final concentration 20 μM) was added followed by varying concentrations of test compounds (DMSO concentration constant). After pH stabilization at ˜7.2, A23187 (3 μL, final concentration 0.33 μM) was added to initiate the experiment. After the peak hyperpolarization was attained, the intracellular pH (pHi constant during the experiment) was found by haemolysing the erythrocytes via addition of 100 μL of Triton-X100.
The erythrocyte membrane potential, Vm, was calculated according to: […]
and the fractional remaining Ca^2+-activated K^+-conductance at the concentration C of blocker, fGK(C), was calculated from
where the K^+ equilibrium potential EK=−107 mV, the Cl^− equilibrium potential ECl=−12 mV and the Vm(0) and Vm(C) are the peak hyperpolarizations in the control and in the presence of a concentration of C of blocker respectively.
IC50 values for compounds were calculated from a plot of fGK(C) versus C by a fit to the Hill equation, using a custom program written in the IGOR-Pro software (WaveMetrics, Lake Oswego, OR, USA). All IC50-values are reported in μM.

[3] = cited from earlier work
[4] = system: mouse model of ARDS; settings: treatment; cited from earlier work

solubility at 16 h [1] | IC50 [2] [µM] | Measured Solubility in pH 7.4 phosphate buffer (mg/ml) [1] [mg/ml] | Measured Solubility in pH 7.4 phosphate buffer (μM) [1] [μM] | Compound | Water solubility [3] | Gas exchange [4]
511 µg/mL and 1500 µM | < 0.3 |  |  | CC(C)(N)CN(CC1CC1)C1(c2ccc(F)c(C(F)(F)F)c2)CC1 [N1-(cyclopropylmethyl)-N1-(1-(4-fluoro-3-(trifluoromethyl)phenyl)cyclopropyl)-2-methyl propane-1,2-diamine] |  | 
607 µg/mL and 1500 µM | < 0.3 |  |  | CCOC(=O)N(CC(C)(C)N)C1(c2ccc(F)c(C(F)(F)F)c2)CC1 [Ethyl (2-amino-2-methylpropyl)(1-(4-fluoro-3-(trifluoromethyl)phenyl)cyclopropyl)carbamate] |  | 
674 µg/mL and 1600 µM | < 0.3 |  |  | COC(=O)N(C[C@@H]1CCCN1)C1(c2ccc(F)c(OC(F)(F)F)c2)CC1 [Methyl (S)-(1-(4-fluoro-3-(trifluoromethoxy)phenyl)cyclopropyl)(pyrrolidin-2-ylmethyl)carbamate] |  | 
481 µg/mL and 1400 µM | < 0.3 |  |  | CC(C)(N)CN(C1CC1)C1(c2cccc(C(F)(F)F)c2)CC1 [N1-cyclopropyl-2-methyl-N1-(1-(3-(trifluoromethyl)phenyl)cyclopropyl)propane-1,2-diamine] |  | 
556 µg/mL and 1600 µM | < 0.3 |  |  | COC(=O)N(CC(C)(C)N)C1(c2ccc(F)c(C(F)(F)F)c2)CC1 [Methyl (2-amino-2-methylpropyl)(1-(4-fluoro-3-(trifluoromethyl)phenyl)cyclopropyl)carbamate] |  | 
621 µg/mL and 1600 µM | < 0.3 |  |  | CN1CCC[C@H]1CN(C1(c2ccc(F)c(C(F)(F)F)c2)CC1)S(C)(=O)=O [(S)-N-(1-(4-fluoro-3-(trifluoromethyl)phenyl)cyclopropyl)-N-((1-methylpyrrolidin-2-yl)methyl)methanesulfonamide] |  | 
27.9 µg/mL and 100 µM | < 0.3 |  |  | COC(=O)N1CC(N(C(=O)OC)C2(c3ccc(F)c(C(F)(F)F)c3)CC2)C1 [Methyl 3-((1-(4-fluoro-3-(trifluoromethyl)phenyl)cyclopropyl) (methoxycarbonyl)amino)azetidine-1-carboxylate] |  | 
601 µg/mL and 1600 µM | < 0.3 |  |  | O=C(OC1CC1)N(C[C@@H]1CCCN1)C1(c2ccc(F)c(C(F)(F)F)c2)CC1 [Cyclopropyl (S)-(1-(4-fluoro-3-(trifluoromethyl)phenyl)cyclopropyl)(pyrrolidin-2-ylmethyl)carbamate] |  | 
138 µg/mL and 400 µM | < 0.3 |  |  | COC(=O)N(CC(C)(C)NO)C1(c2ccc(F)c(C(F)(F)F)c2)CC1 [Methyl (1-(4-fluoro-3-(trifluoromethyl)phenyl)cyclopropyl)(2-(hydroxyamino)-2-methylpropyl)carbamate] |  | 
 | < 0.3 | 0.5918 | 1600 | COC(=O)N(C[C@@H]1CCCN1C)C1(c2ccc(F)c(C(F)(F)F)c2)CC1 [Methyl (S)-(1-(4-fluoro-3-(trifluoromethyl)phenyl)cyclopropyl) ((1-methylpyrrolidin-2-yl)methyl) carbamate] |  | 
 |  |  |  | Clc1ccccc1C(c1ccccc1)(c1ccccc1)n1cccn1 [TRAM-34] | extremely low | improvement was also demonstrated
 | < 0.3 | 0.5599 | 1600 | COC(=O)N(CC1(N)CC1)C1(c2ccc(F)c(C(F)(F)F)c2)CC1 [Methyl ((1-aminocyclopropyl)methyl)(1-(4-fluoro-3-(trifluoromethyl)phenyl)cyclopropyl) carbamate] |  | 
653 µg/mL and 1600 µM | < 0.3 |  |  | COC(=O)N(C[C@@H]1CCCN1)C1(c2ccc(F)c(C(F)(F)F)c2)CC1 [Methyl (S)-(1-(4-fluoro-3-(trifluoromethyl)phenyl)cyclopropyl)(pyrrolidin-2-ylmethyl)carbamate] |  | 
480 µg/mL and 1400 µM | < 0.3 |  |  | N[C@H]1CCC[C@H]1NC1(c2ccc(F)c(C(F)(F)F)c2)CC1 [(1R,2S)-N1-(1-(4-fluoro-3-(trifluoromethyl)phenyl)cyclopropyl)-cyclopentane-1,2-diamine] |  | 
558 µg/mL and 1500 µM | < 0.3 |  |  | COC(=O)N(C[C@H]1CCCN1C)C1(c2ccc(F)c(C(F)(F)F)c2)CC1 [Methyl (R)-(1-(4-fluoro-3-(trifluoromethyl)phenyl)cyclopropyl)((1-methylpyrrolidin-2-yl)methyl)carbamate] |  | 
526 µg/mL and 1400 µM | < 0.3 |  |  | COC(=O)N(CC(C)(C)N)C1(c2cccc(C(F)(F)F)c2)CC1 [Methyl (2-amino-2-methylpropyl)(1-(3-(trifluoromethyl)phenyl)cyclopropyl)carbamate] |  | 
597 µg/mL and 1600 µM | < 1 |  |  | CN1CCC1CN(CC(C)(C)O)C1(c2ccc(F)c(C(F)(F)F)c2)CC1 (centres unmarked) [1-((1-(4-fluoro-3-(trifluoromethyl)phenyl)cyclopropyl)((1-methylazetidin-2-yl)methyl)amino)-2-methylpropan-2-ol] |  | 
 |  |  |  | NC(=O)C(c1ccccc1)(c1ccc(F)cc1)c1ccc(F)cc1 [senicapoc] | extremely low | improvement was also demonstrated
 | < 1 | 0.3218 | 800 | CS(=O)(=O)N(C[C@@H]1CCCN1)C1(c2ccc(F)c(C(F)(F)F)c2)CC1 [(S)-N-(1-(4-fluoro-3-(trifluoromethyl)phenyl)cyclopropyl)-N-(pyrrolidin-2-ylmethyl) methanesulfonamide] |  | 
667 µg/mL and 1700 µM | < 0.3 |  |  | COC(=O)N(C[C@H]1CCCN1)C1(c2ccc(F)c(C(F)(F)F)c2)CC1 [Methyl (R)-(1-(4-fluoro-3-(trifluoromethyl)phenyl)cyclopropyl)(pyrrolidin-2-ylmethyl)carbamate] |  | 
596 µg/mL and 1500 µM | < 1 |  |  | COC(=O)N(CC(C)(C)NC(C)=O)C1(c2ccc(F)c(C(F)(F)F)c2)CC1 [Methyl (2-acetamido-2-methylpropyl)(1-(4-fluoro-3-(trifluoromethyl)phenyl)cyclopropyl)carbamate] |  | 
634 µg/mL and 1500 µM | < 1 |  |  | COC(=O)N(CC(C)(C)N)C1(c2cccc(Cl)c2)CC1 [Methyl (2-amino-2-methylpropyl)(1-(3-chlorophenyl)cyclopropyl)carbamate] |  | 
